From ChEMBL document CHEMBL2216751, “PI3Kδ and PI3Kγ as targets for autoimmune and inflammatory diseases” (J Med Chem, 2012)
One block for each compound: values may come before it.

Key:
[1] = target: T1, Phosphatidylinositol 4,5-bisphosphate 3-kinase catalytic subunit delta isoform (Homo sapiens, UniProt O00329); details: for IC50: read-out: IC50
T1 sequence (O00329 whole entry): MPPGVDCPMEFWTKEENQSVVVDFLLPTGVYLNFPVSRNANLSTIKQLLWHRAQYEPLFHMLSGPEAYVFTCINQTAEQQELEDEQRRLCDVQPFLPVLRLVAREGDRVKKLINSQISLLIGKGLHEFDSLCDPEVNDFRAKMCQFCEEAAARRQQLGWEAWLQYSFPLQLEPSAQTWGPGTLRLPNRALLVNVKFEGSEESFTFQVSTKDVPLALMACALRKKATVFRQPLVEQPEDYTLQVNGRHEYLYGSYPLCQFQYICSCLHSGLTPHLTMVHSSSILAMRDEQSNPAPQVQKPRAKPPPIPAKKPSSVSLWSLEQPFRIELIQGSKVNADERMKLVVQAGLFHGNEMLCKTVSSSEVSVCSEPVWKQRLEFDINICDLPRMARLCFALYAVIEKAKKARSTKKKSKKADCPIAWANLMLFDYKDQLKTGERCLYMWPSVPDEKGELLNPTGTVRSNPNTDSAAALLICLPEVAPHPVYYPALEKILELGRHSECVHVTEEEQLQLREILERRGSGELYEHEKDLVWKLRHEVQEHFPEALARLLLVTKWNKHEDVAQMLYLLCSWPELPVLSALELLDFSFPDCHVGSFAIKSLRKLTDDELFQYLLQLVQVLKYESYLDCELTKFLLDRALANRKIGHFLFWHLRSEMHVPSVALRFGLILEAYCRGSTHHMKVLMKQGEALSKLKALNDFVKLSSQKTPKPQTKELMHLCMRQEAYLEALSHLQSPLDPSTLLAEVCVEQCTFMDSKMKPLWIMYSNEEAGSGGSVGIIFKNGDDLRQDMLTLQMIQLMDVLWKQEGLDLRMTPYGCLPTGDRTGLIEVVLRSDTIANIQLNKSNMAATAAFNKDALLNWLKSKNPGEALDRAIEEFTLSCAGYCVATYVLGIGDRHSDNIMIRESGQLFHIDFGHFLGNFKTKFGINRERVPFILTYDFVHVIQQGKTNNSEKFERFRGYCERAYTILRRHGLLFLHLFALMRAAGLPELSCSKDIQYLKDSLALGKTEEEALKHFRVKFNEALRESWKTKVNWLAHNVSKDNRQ

[2] = target: T2, Phosphatidylinositol 4,5-bisphosphate 3-kinase catalytic subunit delta isoform (Homo sapiens) (UniProt O00329); experiment: Inhibition of PI3Kdelta-mediated Akt phosphorylation at 10 uM by cell-based assay
T2 sequence (whole entry): T1 sequence (O00329 whole entry)

[3] = target: T1, Phosphatidylinositol 4,5-bisphosphate 3-kinase catalytic subunit delta isoform; experiment: Inhibition of PI3Kdelta-mediated AKT phosphorylation in human Ramos cells by ELISA; format: cell-based
[4] = target: T1, Phosphatidylinositol 4,5-bisphosphate 3-kinase catalytic subunit delta isoform; experiment: Inhibition of PI3Kdelta in human PBMC
[5] = target: T1, Phosphatidylinositol 4,5-bisphosphate 3-kinase catalytic subunit delta isoform; experiment: Inhibition of PI3Kdelta by cell-based assay
[6] = target: Phosphatidylinositol 4,5-bisphosphate 3-kinase catalytic subunit gamma isoform (Homo sapiens, UniProt P48736); experiment: Inhibition of PI3Kgamma-mediated Akt phosphorylation in T cells by flow cytometry; format: cell-based, T-cell
[7] = target: T1, Phosphatidylinositol 4,5-bisphosphate 3-kinase catalytic subunit delta isoform; experiment: Inhibition of PI3Kdelta in human whole blood assessed as inhibition of CD69 production in B lymphocyte by immunoassay
[8] = target: Serine/threonine-protein kinase mTOR (Homo sapiens) (UniProt P42345); experiment: Inhibition of mTOR
Rattus norvegicus [9] = experiment: Antiinflammatory activity in rat assessed as inhibition of Streptococcal cell wall-induced rat paw edema at 30 mg/kg; format: functional
Rattus norvegicus [10] = experiment: Antiinflammatory activity in rat assessed as inhibition of Streptococcal cell wall-induced rat paw edema; format: functional; details: read-out: ID50 (the source's name)
Mus musculus = experiment: Antiinflammatory activity in LPS-induced COPD BALB/c mouse model assessed as reduction in pulmonary neutrophilia at 0.3 mg/kg, ip qd; format: functional; set-up: scale not given: the % may be the effect or the level left; details: route intraperitoneal

Sequence of Phosphatidylinositol 4,5-bisphosphate 3-kinase catalytic subunit gamma isoform (P48736 whole entry, canonical isoform): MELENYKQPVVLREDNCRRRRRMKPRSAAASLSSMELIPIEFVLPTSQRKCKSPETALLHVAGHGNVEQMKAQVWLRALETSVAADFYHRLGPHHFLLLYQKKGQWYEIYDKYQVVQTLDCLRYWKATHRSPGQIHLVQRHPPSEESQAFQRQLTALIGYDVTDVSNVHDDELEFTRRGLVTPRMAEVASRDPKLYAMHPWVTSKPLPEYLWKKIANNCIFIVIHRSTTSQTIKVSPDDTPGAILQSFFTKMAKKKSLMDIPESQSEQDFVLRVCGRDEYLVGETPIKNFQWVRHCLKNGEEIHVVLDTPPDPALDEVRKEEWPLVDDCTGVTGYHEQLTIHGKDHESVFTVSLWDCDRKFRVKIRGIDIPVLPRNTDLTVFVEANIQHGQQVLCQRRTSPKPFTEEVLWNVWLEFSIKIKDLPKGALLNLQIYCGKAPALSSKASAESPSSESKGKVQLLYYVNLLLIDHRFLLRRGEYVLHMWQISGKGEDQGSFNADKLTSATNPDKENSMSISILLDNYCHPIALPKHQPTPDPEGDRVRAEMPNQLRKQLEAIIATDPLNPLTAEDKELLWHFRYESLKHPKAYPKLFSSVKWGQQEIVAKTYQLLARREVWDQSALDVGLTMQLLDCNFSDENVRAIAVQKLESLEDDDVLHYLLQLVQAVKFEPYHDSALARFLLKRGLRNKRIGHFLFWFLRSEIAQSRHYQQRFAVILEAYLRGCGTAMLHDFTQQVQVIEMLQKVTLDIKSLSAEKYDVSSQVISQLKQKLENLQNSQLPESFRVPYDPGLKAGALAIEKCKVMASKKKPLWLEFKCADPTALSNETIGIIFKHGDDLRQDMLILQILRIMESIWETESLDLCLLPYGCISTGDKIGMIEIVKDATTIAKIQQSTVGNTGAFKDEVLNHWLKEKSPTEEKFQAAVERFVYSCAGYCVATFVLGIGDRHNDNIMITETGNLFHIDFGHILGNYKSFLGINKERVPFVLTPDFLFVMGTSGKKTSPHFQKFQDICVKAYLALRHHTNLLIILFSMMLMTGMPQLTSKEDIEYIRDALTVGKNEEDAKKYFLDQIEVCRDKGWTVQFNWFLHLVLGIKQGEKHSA

- inhibition [2]: > 95%
Compound: CC(C)(Oc1cccc2[nH]c(-c3nccc(-c4cncc(S(N)(=O)=O)c4)n3)cc12)C(=O)O

- IC50 [1]: < 100 nM
Compound: Cc1cccc2cc(C(C)Nc3ncnc4[nH]cnc34)nc(OC3CCN(C)CC3)c12 (stereo unspecified)

- pIC50 [1]: >= 5
Compound: Cc1nc(C(=O)Nc2cc(-c3cnc4[nH]nc(S(C)(=O)=O)c4c3)cc3[nH]ncc23)cs1

- IC50 [1]: 12 nM
Compound: Nc1ncc(-c2ccc(Cl)c(S(=O)(=O)Nc3ccccc3)c2)nc1C(=O)c1cccnc1

- IC50 [3]: < 500 nM
- IC50 [1]: < 200 nM
Compound: Cc1cccn2c(C(C)Nc3ncnc4[nH]cnc34)c(-c3cc(F)cc(F)c3)nc12 (stereo unspecified)

- pIC50 [1]: >= 5
Compound: O=C(CN1CCOCC1)Nc1cc(-c2cc(F)cc3[nH]ccc23)cc2[nH]ncc12

- IC50 [4]: ≤ 10000 nM
- pIC50 [1]: >= 5
Compound: COc1ccccc1S(=O)(=O)Nc1cc(-c2cc(NC(=O)c3csc(CN4C[C@@H](C)O[C@@H](C)C4)n3)c3cn[nH]c3c2)cnc1OC

- IC50 [5]: < 100 nM
- IC50 [1]: < 100 nM
Compound: Cc1ccccc1-n1c(Cn2nc(-c3cc(O)cc(F)c3)c3c(N)ncnc32)nc2scc(C)c2c1=O

- IC50 [6]: ≤ 10000 nM
- pIC50 [1]: >= 5
Compound: O=C(Nc1cc(-c2cnc3[nH]ncc3c2)cc2[nH]ncc12)c1cccc(CN2CCS(=O)(=O)CC2)n1

- IC50 [1]: 3 nM
Compound: COc1cc2c(CC3CCCC(C)C3)c(C(=O)Nc3nn[nH]n3)sc2cc1C (stereo unspecified)

- Ki [1]: 2.26 nM
Compound: C[C@H](Nc1ncnc(N)c1C#N)c1nc2ccc(F)cc2c(NCCS(C)(=O)=O)c1-c1ccccc1

- INH [8]: < 0.05 µM
- IC50 [1]: < 50 nM
Compound: CC(=O)Nc1nc2ccc(-c3nn(C4CCCC4)c4ncnc(N)c34)cc2s1

- IC50 [1]: < 100 nM
Compound: CC(=O)Nc1nc(C)c(-c2ccc(Cl)c(S(=O)(=O)N[C@@H](C)C(=O)OC3CCCC3)c2)s1

- IC50 [1]: < 100 nM
Compound: CNc1nc(C)c2cc(-c3cc(O)cc(F)c3)ccc2n1

- IC50 [6]: ≤ 1000 nM
- pIC50 [1]: >= 5
Compound: CN1CCOC(C(=O)Nc2cc(-c3cccc4[nH]ccc34)cc3[nH]ncc23)C1 (stereo unspecified)

The next lines start with the compound.

Compound: C[C@H](Nc1ncnc2[nH]cnc12)c1nc2ccsc2c(=O)n1-c1ccccc1
- IC50 [1]: 6 nM

Compound: OCCn1cnc2c(-n3c(C(F)F)nc4ccccc43)nc(N3CCOCC3)nc21
- IC50 [1]: < 30 nM

Compound: CN(C)C1CCN(Cc2cc3nc(-c4cccc5[nH]ccc45)nc(N4CCOCC4)c3s2)CC1
- IC50 [7]: 17 nM
- Ki [1]: 4.9 nM

Compound: Clc1ccc(-c2nc(N3CCOCC3)sc2-c2nnc[nH]2)c(Cl)c1
- IC50 [1]: < 100 nM

Compound: O=C(NCC(=O)N1CCCC1)Nc1nc2ccc(-c3cncc(C(F)(F)F)c3)cn2n1
- IC50 [1]: < 100 nM

Compound: CN(C)CCCOc1cccc2c1nc(C(F)F)n2-c1nc(OC2CCN(C(=O)CCl)CC2)nc(N2CCOCC2)n1
- IC50 [1]: > 100 nM

Compound: O=C(Nc1nn[nH]n1)c1cnc(N2CCOCC2)nc1OC1CCCCCC1
- inhibition in vivo at 30 mg/kg (Rattus norvegicus [9]): 52%
- ED50 (Rattus norvegicus [10]): 16.3 mg/kg
- IC50 [1]: 197 nM

Compound: Cc1nc2ccccc2n1-c1nc(N2CCOCC2)c2oc(CN3CCN(C(C)(C)C(N)=O)CC3)cc2n1
- IC50 [7]: 17.8 nM

Compound: COc1ccc(-c2nn(C)c3nc(N)nc(NCc4ccccc4)c23)cc1F
- IC50 [1]: < 2000 nM

Compound: CC(C)c1nc2ccccc2n1-c1nc(N2CCOCC2)c2nc(OC3CN(C4CCS(=O)(=O)CC4)C3)n(C)c2n1
- IC50 [7]: 3 nM

Compound: c1ccc2c(N3CCOCC3)nc(-c3cccc4[nH]ccc34)cc2c1
- IC50 [1]: 260 nM

Compound: C[C@@H]1C[C@H]2[C@@H]3CCC4=CC(=O)C=C[C@]4(C)[C@@]3(F)[C@@H](O)C[C@]2(C)[C@@]1(O)C(=O)CO [DEXAMETHASONE]
- Activity (Mus musculus): 70%
